From the NIST ThermoML archive (doi:10.1016/j.fluid.2015.07.030)

Assay: refractive index (other wavelength) (dimensionless); xn = mol fraction of the nth substance listed
Settings: 308.15 K, 95.99 kPa, Liquid, Standard Abbe refractometry

OCCOCCOCCO [triethylene glycol] + O
refractive index
Settings | Wavelength=435.8 nm | Wavelength=486.1 nm | Wavelength=546.1 nm | Wavelength=587.6 nm | Wavelength=589.3 nm | Wavelength=632.8 nm
x2 = 0 | – | 1.45629 | 1.45285 | 1.45106 | 1.45099 | 1.44945
x2 = 0.1056 | – | 1.45496 | 1.45153 | 1.44974 | 1.44967 | 1.44814
x2 = 0.2069 | 1.4575 | 1.45334 | 1.44996 | 1.44816 | 1.44809 | 1.44655
x2 = 0.3104 | 1.45498 | 1.45085 | 1.44745 | 1.44566 | 1.44561 | 1.44407
x2 = 0.4844 | 1.45024 | 1.44616 | 1.44282 | 1.44105 | 1.44098 | 1.43947
x2 = 0.5016 | 1.44927 | 1.4452 | 1.44188 | 1.44011 | 1.44065 | 1.43853
x2 = 0.5952 | 1.44251 | 1.43858 | 1.43529 | 1.43357 | 1.4335 | 1.43202
x2 = 0.6016 | 1.44288 | 1.43766 | 1.43458 | 1.43283 | 1.43274 | 1.43225
x2 = 0.6788 | 1.43608 | 1.43224 | 1.42901 | 1.42731 | 1.42725 | 1.42577
x2 = 0.7835 | 1.42735 | 1.42362 | 1.42052 | 1.41887 | 1.4188 | 1.41735
x2 = 0.8184 | 1.42147 | 1.41778 | 1.41468 | 1.41303 | 1.41297 | 1.41153
x2 = 0.8473 | 1.41506 | 1.41139 | 1.40833 | 1.40675 | 1.40666 | 1.40524
x2 = 0.8719 | 1.40816 | 1.40459 | 1.40157 | 1.39999 | 1.39993 | 1.39853
x2 = 0.8926 | 1.40046 | 1.39696 | 1.39401 | 1.39245 | 1.39239 | 1.39102
x2 = 0.9106 | 1.3951 | 1.39162 | 1.38868 | 1.38711 | 1.38705 | 1.38567
x2 = 0.9254 | 1.38515 | 1.38181 | 1.37898 | 1.37744 | 1.37739 | 1.37602
x2 = 0.9303 | 1.38605 | 1.38268 | 1.37985 | 1.37833 | 1.37828 | 1.37692
x2 = 0.9391 | 1.38243 | 1.37908 | 1.37624 | 1.37471 | 1.37465 | –
x2 = 0.951 | 1.37585 | 1.37256 | 1.36977 | 1.36826 | 1.36821 | –
x2 = 0.9599 | 1.3695 | 1.36628 | 1.36351 | 1.36202 | 1.36197 | –
x2 = 0.9708 | 1.36175 | 1.35858 | 1.35587 | 1.35442 | 1.35436 | –
x2 = 0.979 | 1.3569 | 1.35382 | 1.35111 | 1.34968 | 1.34963 | –
x2 = 0.9867 | 1.35054 | 1.34746 | 1.34481 | 1.34338 | 1.34332 | –
x2 = 0.9936 | 1.34444 | 1.34138 | 1.33876 | 1.33735 | 1.3373 | –
